Results reported in patent publication US20110158969A1, “COMPOSITIONS AND METHODS FOR USING STROMAL CELLS TO ENHANCE TREATMENT OF CENTRAL NERVOUS SYSTEM INJURIES” (HENRY FORD HEALTH SYSTEM, priority 2008, published 2011).

Legend:
Rat ICH Model = assay: Striatal tissue loss (H & E staining, image analysis) in rat ICH model; assay type: in vivo; details: 14 days after ICH; relative to contralateral striatum; mean±standard error; mannitol 1.5 g/kg iv, 1 million cells intraarterial
Protocol: Thirty-six male Wistar rats weighing from 270 to 320 grams were used for intracerebral hemorrhage studies. Stereotactic stabilization and localization were used in the rats under general anesthesia as previously described (Seyfried et al., 2006). ICH was induced by injecting 100 μl of autologous blood, obtained from the femoral vein, into the right striatum at a steady infusion rate of 10 μl per minute (Seyfried et al., 2004). Twenty four hours after ICH, the animals were divided into four experimental groups. Group 1 received only intraarterial (via internal carotid artery) injection of 1 million human primary fibroblasts in phosphate-buffered saline (PBS) as a control. Group 2 received intravenous injection of mannitol at a dose of 1.5 g/kg in PBS via the tail vein. Group 3 received intraarterial (internal carotid artery) injection of 1 million hBMSCs in PBS. Group 4 received intravenous injection of mannitol at a dose of 1.5 g/kg followed 10 minutes later by intraarterial injection of 1 million hBMSCs in PBS. All treatments were administered 24 hours after induction of ICH. All rats also received a daily intraperitoneal injection of 100 mg/kg BrdU starting at day 1 after ICH for 14 days.
Histology and immunohistochemistry. […] Percentage of the striatal tissue loss compared to the contralateral striatum was calculated using an image analysis system (Data Translation, Marlboro, Mass.). […]

[1] = system: Rat Intracerebral Hemorrhage (ICH) Model; assay: Neurological severity score (NSS) test in rat ICH model; assay type: in vivo; details: end of second week (day 14) after ICH; vs human fibroblast control group; P<0.05 significant
Protocol: (§1) Functional neurological tests. Functional neurological outcomes were measured by the neurological severity score test (NSS) (Chen et al., 2001) and the corner turn test (Zhang et al., 2002), as previously described in Seyfried et al., 2006. Statistical analysis. Statistical analysis of functional scores was performed using the Student's two-tailed t-test for independent samples.

[2] = system: Rat Intracerebral Hemorrhage (ICH) Model; assay: Corner turn test in rat ICH model; assay type: in vivo; details: end of second week (day 14) after ICH; vs human fibroblast control group; P<0.05 significant
Protocol: as §1

[3] = system: BrdU-positive cells in the boundary around the lesion; assay: BrdU immunostaining, proliferating cells around the lesion; assay type: in vivo, rat; details: 14 days after ICH; vs control group; P<0.05

OC[C@@H](O)[C@@H](O)[C@H](O)[C@H](O)CO [mannitol]
percentage loss of striatal tissues on the side of hemorrhage (Rat ICH Model): 25.9±1.75% | functional neurological outcome assessed by NSS [1]: failed to show any statistically significant neurological improvement | functional neurological outcome assessed by corner turn test [2]: failed to show any statistically significant neurological improvement | BrdU positive staining cells around the injured site [3]: significantly increased the BrdU labeling
